Data published in patent US20230045421A1 (priority 2018, published 2023).

Test system: HBV rcDNA
Assay: HepDE19 assay with bDNA quantitation of HBV rcDNA
Type: cell-based, hepatitis B virus
Details: HepDE19 assay, inhibition of formation of relaxed circular DNA (rcDNA), bDNA quantitation; read-out: DE-19bDNA EC50
Summary of the method: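 Compounds, top concentration 25 μM in 8-point duplicate series, were applied to Tet-free HepDE19 cultures for 7 days. Branched-DNA quantitation of HBV rcDNA against untreated wells gave EC50 and EC90 by 4-parameter fit. Viability (CC50) came from ATP luminescence on parallel plates incubated 4 days.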

Row | SMILES | EC50 [µM]
1 | CC(c1c[nH]c(=O)c2ccccc12)N(Cc1ccccn1)C(=O)Nc1ccc(F)c(Cl)c1 (single isomer, unassigned) [Compound 305, 3-(3-Chloro-4-fluorophenyl)-1-(1-(1-oxo-1,2-dihydroisoquinolin-4-yl)ethyl)-1-(pyridin-2-ylmethyl) urea] | 0.59
2 | CC(c1c[nH]c(=O)c2ccccc12)N(Cc1cccnc1)C(=O)Nc1ccc(F)c(Cl)c1 (single isomer, unassigned) [Compound 306, 3-(3-Chloro-4-fluorophenyl)-1-(1-(1-oxo-1,2-dihydroisoquinolin-4-yl)ethyl)-1-(pyridin-3-ylmethyl) urea] | 1
3 | CC(c1c[nH]c(=O)c2ccccc12)N(Cc1cccnc1)C(=O)Nc1ccc(F)c(Cl)c1 (single isomer, unassigned) [Compound 307, 3-(3-Chloro-4-fluorophenyl)-1-(1-(1-oxo-1,2-dihydroisoquinolin-4-yl)ethyl)-1-(pyridin-3-ylmethyl) urea] | 20
4 | CC(c1c[nH]c(=O)c2ccccc12)N(Cc1ccncc1)C(=O)Nc1ccc(F)c(Cl)c1 (single isomer, unassigned) [Compound 308, 3-(3-Chloro-4-fluorophenyl)-1-(1-(1-oxo-1,2-dihydroisoquinolin-4-yl)ethyl)-1-(pyridin-4-ylmethyl) urea] | 0.13
5 | CC(c1c[nH]c(=O)c2ccccc12)N(Cc1ccncc1)C(=O)Nc1ccc(F)c(Cl)c1 (single isomer, unassigned) [Compound 309, 3-(3-Chloro-4-fluorophenyl)-1-(1-(1-oxo-1,2-dihydroisoquinolin-4-yl)ethyl)-1-(pyridin-4-ylmethyl) urea] | 11
6 | CC(c1c[nH]c(=O)c2ccccc12)N(Cc1nccs1)C(=O)Nc1ccc(F)c(Cl)c1 (single isomer, unassigned) [Compound 310, 3-(3-Chloro-4-fluorophenyl)-1-(1-(1-oxo-1,2-dihydroisoquinolin-4-yl)ethyl)-1-(thiazol-2-ylmethyl)urea] | 5.5
7 | CC(c1c[nH]c(=O)c2ccccc12)N(Cc1nccs1)C(=O)Nc1ccc(F)c(Cl)c1 (single isomer, unassigned) [Compound 311, 3-(3-Chloro-4-fluorophenyl)-1-(1-(1-oxo-1,2-dihydroisoquinolin-4-yl)ethyl)-1-(thiazol-2-ylmethyl)urea] | 0.066
8 | CC(c1c[nH]c(=O)c2ccccc12)N(Cc1cscn1)C(=O)Nc1ccc(F)c(Cl)c1 (single isomer, unassigned) [Compound 312, 3-(3-Chloro-4-fluorophenyl)-1-(1-(1-oxo-1,2-dihydroisoquinolin-4-yl)ethyl)-1-(thiazol-4-ylmethyl)urea] | 4.6
9 | CC(c1c[nH]c(=O)c2ccccc12)N(Cc1cscn1)C(=O)Nc1ccc(F)c(Cl)c1 (single isomer, unassigned) [Compound 313, 3-(3-Chloro-4-fluorophenyl)-1-(1-(1-oxo-1,2-dihydroisoquinolin-4-yl)ethyl)-1-(thiazol-4-ylmethyl)urea] | 0.4
10 | CC(c1cnc(S(C)(=O)=O)c2ccccc12)N(C)C(=O)Nc1ccc(F)c(Cl)c1 (single isomer, unassigned) [Compound 314, 3-(3-Chloro-4-fluorophenyl)-1-methyl-1-(1-(1-(methylsulfonyl)isoquinolin-4-yl)ethyl)urea] | 8.3
11 | CC(c1cnc(S(C)(=O)=O)c2ccccc12)N(C)C(=O)Nc1ccc(F)c(Cl)c1 (single isomer, unassigned) [Compound 315, 3-(3-Chloro-4-fluorophenyl)-1-methyl-1-(1-(1-(methylsulfonyl)isoquinolin-4-yl)ethyl)urea] | 0.8
12 | CNC(=O)c1ncc(C(C)N(C)C(=O)Nc2ccc(F)c(Cl)c2)c2ccccc12 (single isomer, unassigned) [Compound 316, 4-(1-(3-(3-Chloro-4-fluorophenyl)-1-methylureido)ethyl)-N-methylisoquinoline-1-carboxamide] | 7.5
13 | CNC(=O)c1ncc(C(C)N(C)C(=O)Nc2ccc(F)c(Cl)c2)c2ccccc12 (single isomer, unassigned) [Compound 317, 4-(1-(3-(3-Chloro-4-fluorophenyl)-1-methylureido)ethyl)-N-methylisoquinoline-1-carboxamide] | 0.077
14 | CC(c1cnc(C(=O)N(C)C)c2ccccc12)N(C)C(=O)Nc1ccc(F)c(Cl)c1 (single isomer, unassigned) [Compound 318, 4-(1-(3-(3-Chloro-4-fluorophenyl)-1-methylureido)ethyl)-N,N-dimethylisoquinoline-1-carboxamide] | 24
15 | CC(c1cnc(C(=O)N(C)C)c2ccccc12)N(C)C(=O)Nc1ccc(F)c(Cl)c1 (single isomer, unassigned) [Compound 319, 4-(1-(3-(3-Chloro-4-fluorophenyl)-1-methylureido)ethyl)-N,N-dimethylisoquinoline-1-carboxamide] | 0.38
16 | CC(c1c[nH]c(=O)c2ccccc12)N(Cc1ccncn1)C(=O)Nc1ccc(F)c(Cl)c1 (single isomer, unassigned) [Compound 321, 3-(3-Chloro-4-fluorophenyl)-1-(1-(1-oxo-1,2-dihydroisoquinolin-4-yl)ethyl)-1-(pyrimidin-4-ylmethyl)urea] | 19
17 | CC(c1c[nH]c(=O)c2ccccc12)N(Cc1ccncn1)C(=O)Nc1ccc(F)c(Cl)c1 (single isomer, unassigned) [Compound 322, 3-(3-Chloro-4-fluorophenyl)-1-(1-(1-oxo-1,2-dihydroisoquinolin-4-yl)ethyl)-1-(pyrimidin-4-ylmethyl)urea] | 0.35
18 | CC(c1c[nH]c(=O)c2ccccc12)N(Cc1cncs1)C(=O)Nc1ccc(F)c(Cl)c1 (single isomer, unassigned) [Compound 323, 3-(3-Chloro-4-fluorophenyl)-1-(1-(1-oxo-1,2-dihydroisoquinolin-4-yl)ethyl)-1-(thiazol-5-ylmethyl)urea] | 0.085
19 | CC(c1c[nH]c(=O)c2ccccc12)N(Cc1cncs1)C(=O)Nc1ccc(F)c(Cl)c1 (single isomer, unassigned) [Compound 324, 3-(3-Chloro-4-fluorophenyl)-1-(1-(1-oxo-1,2-dihydroisoquinolin-4-yl)ethyl)-1-(thiazol-5-ylmethyl)urea] | 4.5
20 | CC(c1cnc(CO)c2ccccc12)N(C)C(=O)Nc1ccc(F)c(Cl)c1 (single isomer, unassigned) [Compound 326, 3-(3-Chloro-4-fluorophenyl)-1-(1-(1-(hydroxymethyl)isoquinolin-4-yl)ethyl)-1-methylurea] | 16
21 | CC(c1cnc(CO)c2ccccc12)N(C)C(=O)Nc1ccc(F)c(Cl)c1 (single isomer, unassigned) [Compound 327, 3-(3-Chloro-4-fluorophenyl)-1-(1-(1-(hydroxymethyl)isoquinolin-4-yl)ethyl)-1-methylurea] | 0.71
22 | CC(c1cnc(C(N)=O)c2ccccc12)N(C)C(=O)Nc1ccc(F)c(Cl)c1 (single isomer, unassigned) [Compound 328, 4-(1-(3-(3-Chloro-4-fluorophenyl)-1-methylureido)ethyl)isoquinoline-1-carboxamide] | 4.1
23 | CC(c1cnc(C(N)=O)c2ccccc12)N(C)C(=O)Nc1ccc(F)c(Cl)c1 (single isomer, unassigned) [Compound 329, 4-(1-(3-(3-Chloro-4-fluorophenyl)-1-methylureido)ethyl)isoquinoline-1-carboxamide] | 0.12
24 | CC(c1c[nH]c(=O)c2c(F)c(F)ccc12)N(C)C(=O)Nc1ccc(F)c(Cl)c1 (single isomer, unassigned) [Compound 330, 3-(3-Chloro-4-fluorophenyl)-1-(1-(7,8-difluoro-1-oxo-1,2-dihydroisoquinolin-4-yl)ethyl)-1-methylurea] | 0.99
25 | CC(c1c[nH]c(=O)c2c(F)c(F)ccc12)N(C)C(=O)Nc1ccc(F)c(Cl)c1 (single isomer, unassigned) [Compound 331, 3-(3-Chloro-4-fluorophenyl)-1-(1-(7,8-difluoro-1-oxo-1,2-dihydroisoquinolin-4-yl)ethyl)-1-methylurea] | 0.015
26 | CC(c1cn(C)c(=O)c2c(F)c(F)ccc12)N(C)C(=O)Nc1ccc(F)c(Cl)c1 (single isomer, unassigned) [Compound 332, 3-(3-Chloro-4-fluorophenyl)-1-(1-(7,8-difluoro-2-methyl-1-oxo-1,2-dihydroisoquinolin-4-yl)ethyl)-1-methylurea] | 3.7
27 | CC(c1cn(C)c(=O)c2c(F)c(F)ccc12)N(C)C(=O)Nc1ccc(F)c(Cl)c1 (single isomer, unassigned) [Compound 333, 3-(3-Chloro-4-fluorophenyl)-1-(1-(7,8-difluoro-2-methyl-1-oxo-1,2-dihydroisoquinolin-4-yl)ethyl)-1-methylurea] | 0.013
28 | CC(c1c[nH]c(=O)c2c(F)c(F)ccc12)N(CCCO)C(=O)Nc1ccc(F)c(Cl)c1 (single isomer, unassigned) [Compound 334, 3-(3-Chloro-4-fluorophenyl)-1-(1-(7,8-difluoro-1-oxo-1,2-dihydroisoquinolin-4-yl)ethyl)-1-(3-hydroxypropyl)urea] | 2

Same assay, conditions: Hepatitis B virus, HepDE19, HepDE19 assay, inhibition of formation of relaxed circular DNA (rcDNA), bDNA quantitation; read-out: DE-19bDNA EC50

Row | SMILES | EC50 [µM]
29 | CC(c1c[nH]c(=O)c2ccccc12)N(Cc1cncnc1)C(=O)Nc1ccc(F)c(Cl)c1 (single isomer, unassigned) [Compound 320, 3-(3-Chloro-4-fluorophenyl)-1-(1-(1-oxo-1,2-dihydroisoquinolin-4-yl)ethyl)-1-(pyrimidin-5-ylmethyl)urea] | 13
30 | CC(c1cnc(C(=O)O)c2ccccc12)N(C)C(=O)Nc1ccc(F)c(Cl)c1 (single isomer, unassigned) [Compound 325, 4-(1-(3-(3-Chloro-4-fluorophenyl)-1-methylureido)ethyl)isoquinoline-1-carboxylic acid] | 4.2
